The text below walks through data of patent US20100298329A1, “TOLPERISONE AND TOLPERISONE-LIKE DRUGS FOR THE TREATMENT OF K-RAS ASSOCIATED CANCERS” (Massachusette Institute of Technology, priority 2007, published 2010).

Structures are written as SMILES.

The test system of assay [1] is K-Ras mutant cells (cells with Kras G12D mutation). Nature of the assay: FACS analysis of cell death and proliferation (Tunnel/PI staining, DNA content, BrdU staining). The class given is cell-based. As for the experimental part: The effects of lanperisone on cell proliferation and cell death were evaluated based on a FACS analysis. Tunnel staining (for dying cells) and PI staining (excluded by living cells) were used to evaluate cell death in lanperisone and DMSO treated wild-type and K-Ras mutant cells (cells with a Kras G12D mutation).

The subject of assay [2] is wild-type and K-rasG12D MEFs. The assay is described as follows: Gene expression profiling (GSEA, Connectivity Map). The class given is cell-based, mouse. As for the experimental part: (§1) To study the selectivity of lanperisone for K-ras mutant cells, gene expression profiling experiments were carried out using wild-type and K-rasG12D MEFs treated with lanperisone or control DMSO. The gene expression signatures associated with lanperisone treatment were compared with those observed upon 1) manipulation of any of a number of defined biological pathways (i.e., Gene Set Enrichment Analysis or GSEA) and 2) treatment with small molecules with known targets including FDA-approved drugs (ie the Connectivity Map or CMAP). […] This mechanism of cell death occurs in both mouse and human cells, as well as in both fibroblast and epithelial cell lines.

For assay [3], the system named is subcutaneous K-ras G12D-expressing mouse fibroblast tumors. Nature of the assay: Xenograft tumor size in mice. To be noted: 100-200 mg/kg once a day, 7 consecutive days, vs matched DMSO controls. The class given is in vivo. As for the experimental part: The effectiveness of one or more compounds of the invention (e.g., lanperisone) was evaluated in vivo using xenografts. The effect on xenograft tumor size was evaluated in mice by administering a compound of the invention at a dose of 100-200 mg/kg once a day (e.g., via oral administration in water). The compounds were also administered intraperitoneally. Mice harboring established, subcutaneous tumors measuring at least 1 cm were treated with lanperisone for 7 consecutive days. […] These findings confirm the in vivo efficacy of lanperisone in targeting K-ras mutant tumors.

The subject of assay [4] is K-rasG12D-expressing cells. Nature of the assay: Additional biochemical experiments on mechanism of cell death (reactive oxygen species). It is filed as cell-based. To be noted: mouse and human cells, fibroblast and epithelial cell lines. As for the experimental part:
as §1

The next assay concerns K-Ras mutant cells. The assay is described as follows: BrdU cytoblot assay (proliferation by BrdU incorporation). As to conditions: proliferation based upon incorporation of BrdU. The class given is cell-based, mouse. From the text:
(§2) The differential activity of tolperisone confirmed using other assays, such as BrdU cytoblot assay, which measures proliferation based upon incorporation of BrdU.

Assay [5] concerns mouse embryonic fibroblasts (MEFs) expressing oncogenic K-Ras. Nature of the assay: Cell Titer Glo cell viability screen, mutant K-Ras vs wild-type MEFs. The class given is cell-based. To be noted: cell viability by intracellular ATP.
From the text: These MEFs have been extensively characterized at the molecular and cellular level. […] The inclusion of wild-type cells allowed for the elimination of general cytotoxic compounds and for the targeting of molecular pathways activated by oncogenic K-Ras.
as §2

`C[C@H](CN1CCCC1)C(=O)c1ccc(C(F)(F)F)cc1` [lanperisone]: the “cell cycle phase specificity of cell death (cellular DNA content)” value in assay [1] (FACS, FIG. 3B) is recorded as “not specific to any particular phase of the cell cycle”. In assay [1] (FACS, FIG. 3C), the “cellular proliferation (BrdU staining)” value was “no specific defect in cellular proliferation”. In addition, in assay [1] (at 6 hours, 10 μM and 20 μM, Kras G12D cells relative to wild-type cells), the “cell death (Tunnel staining / PI staining)” value is given as “preferentially caused cell death in K-Ras mutant cells”. For the same molecule, the “Connectivity Map connectivities with other classes of small molecules” value in assay [2] (calcium modulators, HDAC inhibitors, HIF activators) is reported as “Numerous connectivities”. The GSEA pathway enrichment result in assay [2] (lanperisone-treated MEFs vs DMSO) was “marked enrichment of hypoxia as well as oxidative stress pathways”. The “tumor size at the end of the treatment period” value in assay [3] was “significantly smaller tumors than matched controls”. Also, the “mechanism of selective cell killing” value in assay [4] is on record as “selectively kills K-rasG12D-expressing cells by inducing reactive oxygen species”.

For the molecule `Cc1ccc(C(=O)C(C)CN2CCCCC2)cc1` (stereo not drawn) [tolperisone], the “differential activity in BrdU cytoblot assay” value in the assay with K-Ras mutant cells is given as “confirmed”. Moreover, the “concentration at which differential activity was shown (as low as)” value in assay [5] was determined as 5 microns.
